The values below come from patent US20230002393A1, “CDK KINASE INHIBITOR” (BEIJING BENICALL BIOTECH CO., LTD., priority 2019, published 2023).

Test [1] has as its target T1, CDK6/CyclinD1 (Homo sapiens, UniProt Q00534).
T1 construct: purchased Carna 04-114
Description: In vitro cell-free CDK6/CyclinD1 kinase activity assay (TR-FRET). The format is biochemical. The note with it: ATP at Km. How it is done: It should be noted that the assay can also be conducted by a similar method. The assay steps in this Test Example are as follows:
The CDK6/CyclinD1 kinase activity was determined using a time-resolved fluorescence resonance energy transfer (TR-FRET) method. Measurements were performed in a reaction volume of 20 μL using 384-well assay plates. […] The reaction was stopped by adding a mixture of a peptide antibody (trade name: Cisbio, product No. 64CUSKAY) and Sa-XL665 (trade name: Cisbio, product No. 610SAXLB) diluted in HTRF KinEASE detection buffer (trade name: Cisbio, product No. 62SDBRDF, containing EDTA). After the mixture was incubated for 1 hour at room temperature, the plate was read. The TR-FRET signal was measured on a multimode plate reader (EnVision™, a multi-function microplate detector, PerkinElmer) at an excitation wavelength (λEx) of 330 nm and detection wavelengths (λEm) of 615 and 665 nm. The activity was determined by the ratio of fluorescence at 665 nm to that at 615 nm. For each compound, the enzyme activities of different concentrations of the compound were measured to determine IC50. The negative control contained no inhibitor. Two no-enzyme controls were used to determine baseline fluorescence levels. IC50 was obtained by fitting using the GraphPad 6.02 software.
8-10 concentrations were prepared for each compound, and formulated in DMSO. The stock concentration was 200× the working concentration. For example, if the working concentration was 100 nM, the corresponding concentration of the formulated stock solution was 20 μM.
In the analysis of in vitro inhibitory activity on CDK kinase, the IC50 value of each of the Example compounds and Reference Example compounds was determined.

In test [2] the test system is MCF-7 cells. Put plainly: Cell viability assay, MCF-7 cells (CellTiter-Glo, 168 h). As to conditions: Homo sapiens, MCF7. It is filed as cell-based. On the procedure:
An in vitro cell viability assay was conducted using some Example compounds following the steps below:
1. After recovery, MCF-7 cells (obtained from the Shanghai Cell Bank of the Chinese Academy of Sciences) were cultured at 37° C., 5% CO2, and 95% humidity.
2. 8 compound solutions at different concentrations were prepared for each Example compound. 50 μL of the compound solution at each concentration was added to a 96-well black plate.
3. The cell concentration was adjusted to about 30,000 cells/mL. 100 μL of the cell suspension was added to the 96-well plate, and mixed well to a final cell density of about 3,000 cells/well.
4. The 96-well plate was incubated at 37° C., 5% CO2, and 95% humidity for 168 h, i.e., 7 days.
5. The cell survival rate was measured by the method of CellTiter-Glo® Luminescent Cell Viability Assay (Promega, Cat #G7572). The fluorescence data were read on a microplate reader (EnVision™, a multi-function microplate detector, PerkinElmer).
6. The obtained fluorescence data were analyzed using the GraphPad Prism software. The cell survival rate was calculated for each Example compound at each concentration, and the IC50 interval of each Example compound was determined.

T1 sequence (Q00534 whole entry): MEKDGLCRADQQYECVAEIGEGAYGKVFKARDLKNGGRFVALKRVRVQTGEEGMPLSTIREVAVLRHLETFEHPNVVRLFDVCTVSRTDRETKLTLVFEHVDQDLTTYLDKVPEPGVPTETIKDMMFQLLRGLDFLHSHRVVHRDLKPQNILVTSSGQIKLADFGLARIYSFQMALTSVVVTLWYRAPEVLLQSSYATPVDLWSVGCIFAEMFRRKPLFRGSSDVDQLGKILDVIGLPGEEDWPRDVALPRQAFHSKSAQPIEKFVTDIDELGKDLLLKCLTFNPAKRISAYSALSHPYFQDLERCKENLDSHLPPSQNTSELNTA
T1 sequence (P24385 whole entry partner): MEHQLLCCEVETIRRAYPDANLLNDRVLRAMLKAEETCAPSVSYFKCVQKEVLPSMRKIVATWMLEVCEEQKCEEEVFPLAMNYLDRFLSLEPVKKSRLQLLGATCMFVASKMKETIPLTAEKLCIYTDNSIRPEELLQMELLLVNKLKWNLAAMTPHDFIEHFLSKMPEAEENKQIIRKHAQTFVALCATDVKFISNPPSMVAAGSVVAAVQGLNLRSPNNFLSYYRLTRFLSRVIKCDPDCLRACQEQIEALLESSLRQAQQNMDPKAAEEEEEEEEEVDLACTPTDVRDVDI

Regarding `COCCOc1ccc(-c2c(C(=O)N(C)C)cc3cnc(Nc4ccc(N5CCNC6(CC6)C5)cn4)nn23)cc1` [Example 47], the IC50 in test [1] was less than 100 nM; in test [2], 2500 to 10000 nM.
Turning to `Cc1noc(C)c1-c1c(-c2cnn(C)c2)cc2cnc(Nc3ccc(N4CCNCC4)cn3)nn12` [Example 68], the IC50 lay within 100 to 1000 nM in test [1] and 2500 to 10000 nM in test [2].
On to `[2H]C([2H])([2H])N(C(=O)c1cc2cnc(Nc3ccc(N4CCN(CC)CC4)cn3)nn2c1C1=CCCC1)C([2H])([2H])[2H]` [Example 118], for which the IC50 in test [1] is less than 100 nM; in test [2] it was less than 500 nM.
On to `CN(C)C(=O)c1cc2cnc(Nc3ccc(N4CCNCC4)cn3)nn2c1N1CCCCC1` [Example 31], for which the IC50 in test [1] was less than 100 nM; in test [2], less than 500 nM.
Taken in the same sequence, the figures for `C1=C(c2c(-c3cnoc3)cc3cnc(Nc4ccc(N5CCNCC5)cn4)nn23)CCC1` [Example 76] were less than 100 nM and 2500 to 10000 nM.
Taken in the same sequence, the figures for `Cc1cc(-c2cc3cnc(Nc4ccc(N5CCNCC5)cn4)nn3c2C2=CCCC2)ccn1` [Example 90] were less than 100 nM and less than 500 nM.
In the case of `N#Cc1cc2cnc(Nc3ccc(N4CCNCC4)cc3)nn2c1-c1cccnc1` [Example 12], the IC50 is less than 100 nM in test [1] and less than 500 nM in test [2].
On to `[2H]C([2H])([2H])N1CCN(c2ccc(Nc3ncc4cc(C(=O)N(C([2H])([2H])[2H])C([2H])([2H])[2H])c(C5=CCCC5)n4n3)nc2)CC1` [Example 114], for which the IC50 in test [1] is less than 100 nM; in test [2] it was less than 500 nM.
For `[2H]C([2H])([2H])N1CCN(c2ccc(Nc3ncc4cc(-c5cnn(C)c5)c(C5=CCCC5)n4n3)nc2)CC1` [Example 126] the same measures were less than 100 nM and less than 500 nM.
As for `COC(=O)c1cc2cnc(Nc3ccc(N4CC5(CNC5)C4)cn3)nn2c1-c1cccc2cccnc12` [Reference Example 133, reference compound], the IC50 in test [1] is greater than 3000 nM; in test [2] it was greater than 10000 nM.
For `COc1ccc(-c2c(C(=O)N(C)C)cc3cnc(Nc4ccc(N5CCN(C)CC5)cn4)nn23)cc1` [Example 100], the IC50 in test [1] was less than 100 nM; in test [2] it was less than 500 nM.
For `COc1ccccc1-c1c(C#N)cc2cnc(Nc3ccc(N4CCNCC4)cc3)nn12` [Example 10] the same measures were less than 100 nM and less than 500 nM.
On to `N#Cc1cc2cnc(Nc3ccc(N4CCNCC4)cn3)nn2c1-c1cccnc1` [Example 27], for which the IC50 lay within 100 to 1000 nM in test [1] and 2500 to 10000 nM in test [2].
For `N#Cc1cc2cnc(Nc3ccc(N4CCNCC4)cc3)nn2c1N1CCC2(CCCCC2)C1` [Example 17] the same measures were less than 100 nM and less than 500 nM.
In the case of `[2H]C([2H])([2H])N(C(=O)c1cc2cnc(Nc3ccc(N4CCN(C)CC4)cn3)nn2c1C1=CCOCC1)C([2H])([2H])[2H]` [Example 119], the IC50 is less than 100 nM in test [1] and less than 500 nM in test [2].
`COc1cc(F)ccc1-c1c(-c2cnn(C)c2)cc2cnc(Nc3ccc(N4CCNCC4)cn3)nn12` [Example 53]: the values for the IC50 in test [1] and in test [2] were 100 to 1000 nM and 500 to 2500 nM, respectively.
Taken in the same sequence, the figures for `O=C1CCCN1c1cc2cnc(Nc3ccc(N4CCNCC4)cn3)nn2c1C1=CCCC1` [Example 52] were 100 to 1000 nM and 2500 to 10000 nM.
Turning to `[2H]C([2H])([2H])N(C(=O)c1cc2cnc(Nc3ccc(N4CCNCC4)cn3)nn2c1C1=CCCC1)C([2H])([2H])[2H]` [Example 112], the IC50 in test [1] is less than 100 nM; in test [2], less than 500 nM.
In the case of `Cc1cc(-c2cc3cnc(Nc4ccc(N5CCN(C)CC5)cn4)nn3c2C2=CCCC2)ccn1` [Example 110], the 50% inhibitory concentration (IC50) in test [1] is less than 100 nM; in test [2], less than 500 nM.
For the molecule `CN1CCN(c2ccc(Nc3ncc4cc(C(=O)N(C)C)c(C5=CCOCC5)n4n3)nc2)CC1` [Example 105], the figures for the IC50 in test [1] and in test [2] were less than 100 nM and less than 500 nM, respectively.
Taken in the same sequence, the figures for `CN(C)C(=O)c1cc2cnc(Nc3ccc(N4CCNCC4)cn3)nn2c1C1=CCCC1` [Example 28] were less than 100 nM and less than 500 nM.
With `CN(C)C(=O)c1cc2cnc(Nc3ccc(N4CCC5(CC4)CC5)cn3)nn2c1C1=CCCC1` [Example 35], the IC50 in test [1] lay in the range of 100 to 1000 nM; in test [2], 500 to 2500 nM.
Consider `Cc1n[nH]cc1-c1cc2cnc(Nc3ccc(N4CCNCC4)cn3)nn2c1C1=CCCC1` [Example 85], for which the IC50 is less than 100 nM in test [1] and less than 500 nM in test [2].
With `[2H]C([2H])([2H])N(C(=O)c1cc2cnc(Nc3ccc(N4CCNCC4)cn3)nn2c1-c1ccc(OC)cc1)C([2H])([2H])[2H]` [Example 117], the IC50 in test [1] was less than 100 nM; in test [2], less than 500 nM.
For `N#Cc1cc2cnc(Nc3ccc(N4CCNCC4)cc3)nn2c1-c1ccc(F)cc1` [Example 13] the same measures were less than 100 nM and less than 500 nM.
Taken in the same sequence, the figures for `Cc1ncc(-c2cc3cnc(Nc4ccc(N5CCNCC5)cn4)nn3c2C2=CCCC2)cn1` [Example 78] were less than 100 nM and 2500 to 10000 nM.
As to `O=C1CCCN1c1cc2cnc(Nc3ccc(N4CCNCC4)cn3)nn2c1-c1ccc(Cl)cc1` [Example 51], the IC50 in test [1] was in the range of 100 to 1000 nM; in test [2], 500 to 2500 nM.
For `CCn1cc(-c2cc3cnc(Nc4ccc(N5CCNCC5)cn4)nn3c2C2=CCCC2)cn1` [Example 86] the same measures were less than 100 nM and less than 500 nM.
In the case of `CN(C)C(=O)c1cc2cnc(Nc3ccc(N4CCC5(CC4)COC5)cn3)nn2c1C1=CCCC1` [Example 38], the IC50 in test [1] was less than 100 nM; in test [2] it was less than 500 nM.
For `COCCOc1ccc(-c2c(C(=O)N(C)C)cc3cnc(Nc4ccc(N5CCC6(CCNCC6)C5)cn4)nn23)cc1` [Example 50] the same measures were less than 100 nM and 2500 to 10000 nM.
As for `CN1CCN(c2ccc(Nc3ncc4ccc(C5=CCCC5)n4n3)cc2)CC1` [Example 5], the results for the IC50 in test [1] and in test [2] were 100 to 1000 nM and less than 500 nM, respectively.
Take `[2H]C([2H])([2H])N(C(=O)c1cc2cnc(Nc3ccc(N4CCN(C)CC4)cn3)nn2c1C1=CCCC1)C([2H])([2H])[2H]` [Example 113]: the results for the IC50 in test [1] and in test [2] were less than 100 nM and less than 500 nM, respectively.
For `Cn1cc(-c2cc3cnc(Nc4ccc(N5CCNCC5)cn4)nn3c2C2=CCCC2)ccc1=O` [Example 73] the same measures were less than 100 nM and 500 to 2500 nM.
For `CN(C)C(=O)c1cc2cnc(Nc3ccc(N4CC5(CNC5)C4)cn3)nn2c1C1=CCCC1` [Example 40] the same measures were less than 100 nM and less than 500 nM.
As to `COc1ccc(-c2c(C(=O)N(C)C)cc3cnc(Nc4ccc(N5CCNCC5)cn4)nn23)cc1` [Example 42], the results for the IC50 in test [1] and in test [2] were less than 100 nM and less than 500 nM, respectively.
On to `Cc1ccc(-c2cc3cnc(Nc4ccc(N5CCNCC5)cn4)nn3c2C2=CCCC2)cn1` [Example 89], for which the IC50 in test [1] was less than 100 nM; in test [2] it was less than 500 nM.
`Cn1cc(-c2cc3cnc(Nc4ccc(N5CCNCC5)cn4)nn3c2)cn1` [Example 81]: the IC50 was in the range of 100 to 1000 nM in test [1] and 2500 to 10000 nM in test [2].
For `[2H]C([2H])([2H])N(C(=O)c1cc2cnc(Nc3ccc(N4CCN(C)CC4)cn3)nn2c1-c1ccc(OC)cc1)C([2H])([2H])[2H]` [Example 121] the same measures were less than 100 nM and less than 500 nM.
As for `C1=C(c2c(-c3cn[nH]c3)cc3cnc(Nc4ccc(N5CCNCC5)cn4)nn23)CCC1` [Example 74], the IC50 was less than 100 nM in test [1] and less than 500 nM in test [2].
With `N#Cc1cc2cnc(Nc3ccc(N4CCNCC4)cn3)nn2c1C1=CCCC1` [Example 25], the IC50 in test [1] was less than 100 nM; in test [2], less than 500 nM.
Taken in the same sequence, the figures for `N#Cc1cc2cnc(Nc3ccc(N4CCNCC4)cc3)nn2c1N1CCC2(CCNCC2)CC1` [Example 16] were less than 100 nM and 500 to 2500 nM.
Consider `CN(C)C(=O)c1cc2cnc(Nc3ccc(N4CCC5(CC4)OCCO5)cn3)nn2c1C1=CCCC1` [Example 37], for which the results for the IC50 in test [1] and in test [2] were less than 100 nM and 500 to 2500 nM, respectively.
For the molecule `Cc1noc(C)c1-c1c(C(=O)N(C)C)cc2cnc(Nc3ccc(N4CC5(CCNC5)C4)cn3)nn12` [Reference Example 134, reference compound], the IC50 in test [1] was 1000 to 3000 nM; in test [2], greater than 10000 nM.
